The data set deals with SMN2. The experiment in a line: mouse, dose not given. The following applies: ASO.

Where “and” joins values, the source holds several entries; their conditions need not be identical. Identical values can stand only once. HELM strings list units from the 5' end as sugar, base in round brackets, then linkage (d deoxyribose, r ribose, m 2'-O-methyl, p phosphodiester). Strings are as the collection lists them; they lack the last nucleoside at the 3' end of the tested compound. [moe] = 2'-O-(2-methoxyethyl) (MOE); [sp] = phosphorothioate linkage; [m5C] = 5-methylcytosine

Substance “RNA1{[moe](T)[sp].[moe]([m5C])[sp].[moe](A)[sp].[moe]([m5C])[sp].[moe](T)[sp].[moe](T)[sp].[moe](T)[sp].[moe]([m5C])[sp].[moe](A)[sp].[moe](T)p.[moe](A)[sp].[moe](A)[sp].[moe](T)[sp].[moe](G)p.[moe]([m5C])[sp].[moe](T)[sp].[moe](G)}$$$$ (last 3' nucleoside missing)” showed a 3 h FOB score of 3.5 score 0-7. Next, “RNA1{[moe](A)[sp].[moe](T)[sp].[moe](T)[sp].[moe]([m5C])[sp].[moe](A)[sp].[moe]([m5C])[sp].[moe](T)[sp].[moe](T)[sp].[moe](T)[sp].[moe]([m5C])p.[moe](A)[sp].[moe](T)[sp].[moe](A)[sp].[moe](A)[sp].[moe](T)[sp].[moe](G)[sp].[moe]([m5C])[sp].[moe](T)[sp].[moe](G)}$$$$ (last 3' nucleoside missing)”: 4 score 0-7. Next, “RNA1{[moe]([m5C])[sp].[moe](T)p.[moe](T)p.[moe](T)[sp].[moe]([m5C])[sp].[moe](A)[sp].[moe](T)[sp].[moe](A)[sp].[moe](A)[sp].[moe](T)[sp].[moe](G)[sp].[moe]([m5C])p.[moe](T)p.[moe](G)[sp].[moe](G)}$$$$ (last 3' nucleoside missing)”: 0.25 score 0-7; “RNA1{[moe]([m5C])[sp].[moe](A)[sp].[moe]([m5C])[sp].[moe](T)[sp].[moe](T)[sp].[moe](T)[sp].[moe]([m5C])[sp].[moe](A)[sp].[moe](T)[sp].[moe](A)[sp].[moe](A)[sp].[moe](T)[sp].[moe](G)[sp].[moe]([m5C])[sp].[moe](T)[sp].[moe](G)[sp].[moe](G)}$$$$ (last 3' nucleoside missing)”: 2.5 score 0-7; “RNA1{[moe](T)[sp].[moe]([m5C])[sp].[moe](A)[sp].[moe]([m5C])[sp].[moe](T)[sp].[moe](T)[sp].[moe](T)[sp].[moe]([m5C])[sp].[moe](A)[sp].[moe](T)[sp].[moe](A)[sp].[moe](A)[sp].[moe](T)[sp].[moe](G)[sp].[moe]([m5C])[sp].[moe](T)[sp].[moe](G)[sp].[moe](G)[sp].[moe]([m5C])}$$$$ (last 3' nucleoside missing)”: 0 score 0-7. Regarding “RNA1{[moe]([m5C])[sp].[moe](T)p.[moe](T)p.[moe](T)p.[moe]([m5C])[sp].[moe](A)[sp].[moe](T)[sp].[moe](A)[sp].[moe](A)[sp].[moe](T)[sp].[moe](G)[sp].[moe]([m5C])p.[moe](T)p.[moe](G)[sp].[moe](G)}$$$$ (last 3' nucleoside missing)”, the 3 h FOB score came out at 0 score 0-7.

Turning to “RNA1{[moe](T)[sp].[moe](T)p.[moe]([m5C])[sp].[moe](A)[sp].[moe]([m5C])[sp].[moe](T)[sp].[moe](T)[sp].[moe](T)[sp].[moe]([m5C])[sp].[moe](A)[sp].[moe](T)[sp].[moe](A)[sp].[moe](A)[sp].[moe](T)[sp].[moe](G)[sp].[moe]([m5C])p.[moe](T)[sp].[moe](G)}$$$$ (last 3' nucleoside missing)”, the 3 h FOB score is 1 score 0-7. For “RNA1{[moe]([m5C])[sp].[moe](A)[sp].[moe]([m5C])[sp].[moe](T)[sp].[moe](T)p.[moe](T)[sp].[moe]([m5C])[sp].[moe](A)[sp].[moe](T)[sp].[moe](A)[sp].[moe](A)[sp].[moe](T)[sp].[moe](G)[sp].[moe]([m5C])[sp].[moe](T)[sp].[moe](G)[sp].[moe](G)}$$$$ (last 3' nucleoside missing)”, the 3 h FOB score was 0.5 score 0-7. As to “RNA1{[moe](T)[sp].[moe]([m5C])[sp].[moe](A)[sp].[moe]([m5C])[sp].[moe](T)[sp].[moe](T)[sp].[moe](T)[sp].[moe]([m5C])[sp].[moe](A)[sp].[moe](T)[sp].[moe](A)[sp].[moe](A)[sp].[moe](T)[sp].[moe](G)[sp].[moe]([m5C])[sp].[moe](T)[sp].[moe](G)[sp].[moe](G)p.[moe](A)}$$$$ (last 3' nucleoside missing)”, the 3 h FOB score was 3.75 score 0-7 and 4 score 0-7 (3×).

Turning to “RNA1{[moe](T)[sp].[moe]([m5C])[sp].[moe](A)[sp].[moe]([m5C])[sp].[moe](T)[sp].[moe](T)[sp].[moe](T)[sp].[moe]([m5C])[sp].[moe](A)[sp].[moe](T)[sp].[moe](A)[sp].[moe](A)[sp].[moe](T)[sp].[moe](G)[sp].[moe]([m5C])[sp].[moe](T)[sp].[moe](G)[sp].[moe](G)p.d([m5C])}$$$$ (last 3' nucleoside missing)”, the 3 h FOB score was 4 score 0-7 (2×) and 3.75 score 0-7 (2×) and 3.5 score 0-7. “RNA1{[moe](T)[sp].[moe]([m5C])[sp].[moe](A)[sp].[moe]([m5C])[sp].[moe](T)[sp].[moe](T)p.[moe](T)[sp].[moe]([m5C])[sp].[moe](A)[sp].[moe](T)[sp].[moe](A)[sp].[moe](A)[sp].[moe](T)[sp].[moe](G)[sp].[moe]([m5C])[sp].[moe](T)[sp].[moe](G)}$$$$ (last 3' nucleoside missing)”: the 3 h FOB score was 4 score 0-7.

On to “RNA1{[moe](A)[sp].[moe]([m5C])[sp].[moe](T)[sp].[moe](T)[sp].[moe](T)[sp].[moe]([m5C])[sp].[moe](A)p.[moe](T)p.[moe](A)p.[moe](A)p.[moe](T)[sp].[moe](G)[sp].[moe]([m5C])[sp].[moe](T)[sp].[moe](G)[sp].[moe](G)}$$$$ (last 3' nucleoside missing)”, for which the 3 h FOB score amounted to 0.25 score 0-7. Then “RNA1{[moe]([m5C])[sp].[moe](T)[sp].[moe](T)p.[moe](T)[sp].[moe]([m5C])[sp].[moe](A)p.[moe](T)[sp].[moe](A)[sp].[moe](A)p.[moe](T)[sp].[moe](G)p.[moe]([m5C])[sp].[moe](T)p.[moe](G)[sp].[moe](G)}$$$$ (last 3' nucleoside missing)”, with 0 score 0-7; and “RNA1{[moe]([m5C])[sp].[moe](A)p.[moe]([m5C])p.[moe](T)p.[moe](T)[sp].[moe](T)[sp].[moe]([m5C])[sp].[moe](A)[sp].[moe](T)[sp].[moe](A)[sp].[moe](A)[sp].[moe](T)[sp].[moe](G)p.[moe]([m5C])p.[moe](T)p.[moe](G)[sp].[moe](G)}$$$$ (last 3' nucleoside missing)”, with 0 score 0-7. Consider “RNA1{[moe](T)[sp].[moe]([m5C])[sp].[moe](A)[sp].[moe]([m5C])[sp].[moe](T)[sp].[moe](T)[sp].[moe](T)[sp].[moe]([m5C])[sp].[moe](A)[sp].[moe](T)[sp].[moe](A)p.[moe](A)[sp].[moe](T)[sp].[moe](G)p.[moe]([m5C])[sp].[moe](T)[sp].[moe](G)}$$$$ (last 3' nucleoside missing)”, for which the 3 h FOB score came to 2 score 0-7. Turning to “RNA1{[moe]([m5C])[sp].[moe](A)[sp].[moe]([m5C])[sp].[moe](T)[sp].[moe](T)[sp].[moe](T)[sp].[moe]([m5C])[sp].[moe](A)p.[moe](T)p.[moe](A)p.[moe](A)[sp].[moe](T)[sp].[moe](G)[sp].[moe]([m5C])[sp].[moe](T)[sp].[moe](G)[sp].[moe](G)}$$$$ (last 3' nucleoside missing)”, the 3 h FOB score was found to be 1 score 0-7. With “RNA1{[moe]([m5C])[sp].[moe](A)[sp].[moe]([m5C])[sp].[moe](T)[sp].[moe](T)[sp].[moe](T)[sp].[moe]([m5C])[sp].[moe](A)[sp].[moe](T)p.[moe](A)[sp].[moe](A)[sp].[moe](T)[sp].[moe](G)[sp].[moe]([m5C])[sp].[moe](T)p.[moe](G)[sp].[moe](G)}$$$$ (last 3' nucleoside missing)”, the 3 h FOB score was 0 score 0-7. Next, “RNA1{[moe]([m5C])[sp].[moe](A)[sp].[moe]([m5C])[sp].[moe](T)[sp].[moe](T)[sp].[moe](T)[sp].[moe]([m5C])[sp].[moe](A)[sp].[moe](T)[sp].[moe](A)[sp].[moe](A)[sp].[moe](T)[sp].[moe](G)[sp].[moe]([m5C])[sp].[moe](T)p.[moe](G)[sp].[moe](G)}$$$$ (last 3' nucleoside missing)”: 0 score 0-7. Then “RNA1{[moe](A)[sp].[moe](G)[sp].[moe](A)[sp].[moe](T)[sp].[moe](T)[sp].[moe]([m5C])[sp].[moe](A)[sp].[moe]([m5C])[sp].[moe](T)[sp].[moe](T)[sp].[moe](T)[sp].[moe]([m5C])[sp].[moe](A)[sp].[moe](T)[sp].[moe](A)[sp].[moe](A)[sp].[moe](T)[sp].[moe](G)[sp].[moe]([m5C])}$$$$ (last 3' nucleoside missing)”, with 3.5 score 0-7; and “RNA1{[moe]([m5C])[sp].[moe](A)[sp].[moe]([m5C])[sp].[moe](T)[sp].[moe](T)[sp].[moe](T)p.[moe]([m5C])p.[moe](A)p.[moe](T)p.[moe](A)p.[moe](A)p.[moe](T)p.[moe](G)[sp].[moe]([m5C])[sp].[moe](T)[sp].[moe](G)[sp].[moe](G)}$$$$ (last 3' nucleoside missing)”, with 0 score 0-7. “RNA1{[moe]([m5C])[sp].[moe](A)p.[moe]([m5C])[sp].[moe](T)[sp].[moe](T)[sp].[moe](T)p.[moe]([m5C])[sp].[moe](A)[sp].[moe](T)[sp].[moe](A)[sp].[moe](A)[sp].[moe](T)[sp].[moe](G)[sp].[moe]([m5C])[sp].[moe](T)[sp].[moe](G)[sp].[moe](G)}$$$$ (last 3' nucleoside missing)” had a 3 h FOB score of 0 score 0-7. The substance “RNA1{[moe]([m5C])[sp].[moe](A)p.[moe]([m5C])p.[moe](T)[sp].[moe](T)[sp].[moe](T)[sp].[moe]([m5C])[sp].[moe](A)[sp].[moe](T)[sp].[moe](A)[sp].[moe](A)[sp].[moe](T)[sp].[moe](G)[sp].[moe]([m5C])[sp].[moe](T)[sp].[moe](G)[sp].[moe](G)}$$$$ (last 3' nucleoside missing)” had a 3 h FOB score of 0 score 0-7. In the case of “RNA1{[moe]([m5C])[sp].[moe](A)[sp].[moe]([m5C])[sp].[moe](T)[sp].[moe](T)p.[moe](T)p.[moe]([m5C])p.[moe](A)p.[moe](T)[sp].[moe](A)[sp].[moe](A)[sp].[moe](T)[sp].[moe](G)[sp].[moe]([m5C])[sp].[moe](T)[sp].[moe](G)[sp].[moe](G)}$$$$ (last 3' nucleoside missing)”, the 3 h FOB score is 0 score 0-7.

For the origin of these results see the OligoGym collection.
